ChEMBL document CHEMBL3885861, “Open TG-GATES”

Species on record: Rattus norvegicus
Assay: Open TG-GATES - Regimen: Daily Repeat
Assay type: toxicity, organism-based, Sprague-Dawley
Parameters: regimen Daily Repeat, gender Male, age 6 weeks
Conditions: in vivo, po, 0 mg/kg, route gavage, dose level Control; for APTT / Bas / Eos / Fbg / Hb / Ht / Lym / MCH / MCHC / MCV / Mono / Neu / PT / Plat / RBC / Ret / WBC: tissue Blood; for KIDNEY_L / KIDNEY_R / KIDNEY_TOTAL: tissue Kidney; for LIVER: tissue Liver; for A/G / ALP / ALT / AST / BUN / CRE / Ca / Cl / DBIL / GLC / IP / K / LDH / Na / PL / RALB / TBIL / TC / TG / TP / gamma-GTP: tissue Plasma

Work on `O=NN(CCCl)C(=O)NC1CCCCC1` [LOMUSTINE] yielded a TERMINAL_BW (72 h, time 3 day) of 220.6 g, an APTT (72 h, time 3 day) of 17.7 s and a Bas (72 h, time 3 day) of 0%. For the same compound, the Eos (72 h, time 3 day) was 0.6%, the Fbg (72 h, time 3 day) was 234 mg/dL and the Hb (72 h, time 3 day) was 13.5 g/dL. The Ht (72 h, time 3 day) was 40.6%, the Lym (72 h, time 3 day) was 76.8% and the MCH (72 h, time 3 day) was 21.8 pg. For the same compound, the MCHC (72 h, time 3 day) was 33.3%, the MCV (72 h, time 3 day) was 65.5 fL and the Mono (72 h, time 3 day) was 6.4%. It also gave a Neu (72 h, time 3 day) of 16.2%, a PT (72 h, time 3 day) of 11.8 s and a Plat (72 h, time 3 day) of 108.6 x10_4/uL. For the same compound, the RBC (72 h, time 3 day) was 619.4 x10_4/ul, the Ret (72 h, time 3 day) was 7.2% and the WBC (72 h, time 3 day) was 131.9 x10_2/uL. It also gave a KIDNEY_L (72 h, time 3 day) of 1 g, a KIDNEY_R (72 h, time 3 day) of 1 g and a KIDNEY_TOTAL (72 h, time 3 day) of 2 g. It also gave an LIVER (72 h, time 3 day) of 10.5 g, an A/G (72 h, time 3 day) of 2 and an ALP (72 h, time 3 day) of 1042.6 IU/L. For the same compound, the ALT (72 h, time 3 day) was 33.6 IU/L, the AST (72 h, time 3 day) was 69.4 IU/L and the BUN (72 h, time 3 day) was 18 mg/dL. It also gave a CRE (72 h, time 3 day) of 0.5 mg/dL, a Ca (72 h, time 3 day) of 11 mg/dL and a Cl (72 h, time 3 day) of 104.4 meq/L. The DBIL (72 h, time 3 day) was 0.006 mg/dL, the GLC (72 h, time 3 day) was 186.2 mg/dL and the IP (72 h, time 3 day) was 8.5 mg/dL. For the same compound, the K (72 h, time 3 day) was 5.1 meq/L, the LDH (72 h, time 3 day) was 99.8 IU/L and the Na (72 h, time 3 day) was 140 meq/L. The PL (72 h, time 3 day) was 147.6 mg/dL, the RALB (72 h, time 3 day) was 3.9 g/dL and the TBIL (72 h, time 3 day) was 0.4 mg/dL. The TC (72 h, time 3 day) was 74.8 mg/dL, the TG (72 h, time 3 day) was 114.6 mg/dL and the TP (72 h, time 3 day) was 5.9 g/dL. For the same compound, the gamma-GTP (72 h, time 3 day) was 2 IU/L, the TERMINAL_BW ([…], time 7 day) was 258.9 g and the TERMINAL_BW ([…], time 14 day) was 305.2 g. For the same compound, the TERMINAL_BW ([…], time 28 day) was 379.6 g, the APTT ([…], time 7 day) was 17.7 s and the Bas ([…], time 7 day) was 0%. For the same compound, the Eos ([…], time 7 day) was 1%, the Fbg ([…], time 7 day) was 241.8 mg/dL and the Hb ([…], time 7 day) was 13.4 g/dL. It also gave a Ht ([…], time 7 day) of 40.2%, a Lym ([…], time 7 day) of 79.6% and an MCH ([…], time 7 day) of 21.8 pg. For the same compound, the MCHC ([…], time 7 day) was 33.4%, the MCV ([…], time 7 day) was 65.2 fL and the Mono ([…], time 7 day) was 6%. The Neu ([…], time 7 day) was 14.2%, the PT ([…], time 7 day) was 11.4 s and the Plat ([…], time 7 day) was 107.5 x10_4/uL. It also gave an RBC ([…], time 7 day) of 617.4 x10_4/ul, a Ret ([…], time 7 day) of 7.2% and a WBC ([…], time 7 day) of 161 x10_2/uL. For the same compound, the APTT ([…], time 14 day) was 16.7 s, the Bas ([…], time 14 day) was 0% and the Eos ([…], time 14 day) was 0.4%. It also gave a Fbg ([…], time 14 day) of 224.4 mg/dL, a Hb ([…], time 14 day) of 14.1 g/dL and a Ht ([…], time 14 day) of 42%. The Lym ([…], time 14 day) was 80.8%, the MCH ([…], time 14 day) was 20.3 pg and the MCHC ([…], time 14 day) was 33.5%. For the same compound, the MCV ([…], time 14 day) was 60.7 fL, the Mono ([…], time 14 day) was 6.8% and the Neu ([…], time 14 day) was 11.8%. For the same compound, the PT ([…], time 14 day) was 11.4 s, the Plat ([…], time 14 day) was 119.2 x10_4/uL and the RBC ([…], time 14 day) was 693.2 x10_4/ul. The Ret ([…], time 14 day) was 4.9%, the WBC ([…], time 14 day) was 145.5 x10_2/uL and the APTT ([…], time 28 day) was 17.5 s. It also gave a Bas ([…], time 28 day) of 0%, an Eos ([…], time 28 day) of 1% and a Fbg ([…], time 28 day) of 250.6 mg/dL. The Hb ([…], time 28 day) was 15 g/dL, the Ht ([…], time 28 day) was 44.9% and the Lym ([…], time 28 day) was 82.8%. The MCH ([…], time 28 day) was 19.2 pg, the MCHC ([…], time 28 day) was 33.5% and the MCV ([…], time 28 day) was 57.3 fL. For the same compound, the Mono ([…], time 28 day) was 5.4%, the Neu ([…], time 28 day) was 10.8% and the PT ([…], time 28 day) was 11.9 s. The Plat ([…], time 28 day) was 107.1 x10_4/uL, the RBC ([…], time 28 day) was 783 x10_4/ul and the Ret ([…], time 28 day) was 2.5%. The WBC ([…], time 28 day) was 166.4 x10_2/uL, the KIDNEY_L ([…], time 7 day) was 1.2 g and the KIDNEY_R ([…], time 7 day) was 1.1 g. The KIDNEY_TOTAL ([…], time 7 day) was 2.3 g, the KIDNEY_L ([…], time 14 day) was 1.1 g and the KIDNEY_R ([…], time 14 day) was 1.2 g. For the same compound, the KIDNEY_TOTAL ([…], time 14 day) was 2.3 g, the KIDNEY_L ([…], time 28 day) was 1.4 g and the KIDNEY_R ([…], time 28 day) was 1.4 g. It also gave a KIDNEY_TOTAL ([…], time 28 day) of 2.7 g, an LIVER ([…], time 7 day) of 12.8 g and an LIVER ([…], time 14 day) of 14.1 g. For the same compound, the LIVER ([…], time 28 day) was 15.1 g, the A/G ([…], time 7 day) was 1.8 and the ALP ([…], time 7 day) was 746 IU/L. It also gave an ALT ([…], time 7 day) of 36.6 IU/L, an AST ([…], time 7 day) of 59 IU/L and a BUN ([…], time 7 day) of 19.2 mg/dL. It also gave a CRE ([…], time 7 day) of 0.5 mg/dL, a Ca ([…], time 7 day) of 10.9 mg/dL and a Cl ([…], time 7 day) of 105.2 meq/L. The DBIL ([…], time 7 day) was 0.012 mg/dL, the GLC ([…], time 7 day) was 186 mg/dL and the IP ([…], time 7 day) was 7.5 mg/dL. It also gave a K ([…], time 7 day) of 4.9 meq/L, an LDH ([…], time 7 day) of 85 IU/L and a Na ([…], time 7 day) of 140.4 meq/L. It also gave a PL ([…], time 7 day) of 168.2 mg/dL, an RALB ([…], time 7 day) of 3.9 g/dL and a TBIL ([…], time 7 day) of 0.3 mg/dL. The TC ([…], time 7 day) was 90 mg/dL, the TG ([…], time 7 day) was 113.2 mg/dL and the TP ([…], time 7 day) was 6.1 g/dL. The gamma-GTP ([…], time 7 day) was 1 IU/L, the A/G ([…], time 14 day) was 2 and the ALP ([…], time 14 day) was 859 IU/L. For the same compound, the ALT ([…], time 14 day) was 34 IU/L, the AST ([…], time 14 day) was 63.4 IU/L and the BUN ([…], time 14 day) was 20.2 mg/dL. For the same compound, the CRE ([…], time 14 day) was 0.5 mg/dL, the Ca ([…], time 14 day) was 11.3 mg/dL and the Cl ([…], time 14 day) was 106.8 meq/L. For the same compound, the DBIL ([…], time 14 day) was 0.014 mg/dL, the GLC ([…], time 14 day) was 183 mg/dL and the IP ([…], time 14 day) was 7.4 mg/dL. It also gave a K ([…], time 14 day) of 4.7 meq/L, an LDH ([…], time 14 day) of 85.6 IU/L and a Na ([…], time 14 day) of 140.2 meq/L. The PL ([…], time 14 day) was 167.6 mg/dL, the RALB ([…], time 14 day) was 4 g/dL and the TBIL ([…], time 14 day) was 0.3 mg/dL. It also gave a TC ([…], time 14 day) of 81 mg/dL, a TG ([…], time 14 day) of 118.6 mg/dL and a TP ([…], time 14 day) of 6.2 g/dL. It also gave a gamma-GTP ([…], time 14 day) of 2 IU/L, an A/G ([…], time 28 day) of 1.6 and an ALP ([…], time 28 day) of 681.8 IU/L. The ALT ([…], time 28 day) was 32.2 IU/L, the AST ([…], time 28 day) was 63.4 IU/L and the BUN ([…], time 28 day) was 19 mg/dL. It also gave a CRE ([…], time 28 day) of 0.4 mg/dL, a Ca ([…], time 28 day) of 10.8 mg/dL and a Cl ([…], time 28 day) of 106 meq/L. The DBIL ([…], time 28 day) was 0.012 mg/dL, the GLC ([…], time 28 day) was 189.8 mg/dL and the IP ([…], time 28 day) was 6.3 mg/dL. It also gave a K ([…], time 28 day) of 4.6 meq/L, an LDH ([…], time 28 day) of 86.4 IU/L and a Na ([…], time 28 day) of 140 meq/L. It also gave a PL ([…], time 28 day) of 148.4 mg/dL, an RALB ([…], time 28 day) of 4 g/dL and a TBIL ([…], time 28 day) of 0.3 mg/dL. For the same compound, the TC ([…], time 28 day) was 71 mg/dL, the TG ([…], time 28 day) was 122.2 mg/dL and the TP ([…], time 28 day) was 6.4 g/dL. The gamma-GTP ([…], time 28 day) was 1.8 IU/L.
